Counter-ions that a name gives are not always drawn.
Tested on: human blood
Assay: Hemolysis test with diluted human blood (ISO 10993-4)
Format: cell-based
Excerpt: Procedure: The PBS used in testing was calcium and magnesium free. The method has been validated using human blood from one donor. This is in compliance with ISO 10993-4 which states due to differences in blood activity, human blood should be used where possible. Furthermore, pooling unmatched human blood from multiple donors may cause red blood cell agglutination which in turn could cause hemolysis; this supports the use of a single donor.
The blood was drawn using vacutainers containing 0.1 M sodium citrate at a ratio of 9:1 (3.2% anticoagulant to blood). The blood in this test was used within four hours of blood draw. The collected blood was refrigerated until testing was performed.
A hemoglobin standard was diluted with Drabkin's reagent to give solutions at concentrations of 0.80, 0.60, 0.40, 0.30, 0.20, 0.10, 0.02, and 0.01 mg/ml. These solutions were allowed to stand at room temperature for a minimum of five minutes. The absorbance was read on a spectrophotometer at 540 nanometers (nm). A standard curve was determined with the absorbance values and the standard concentrations of hemoglobin.
Human blood was centrifuged at 700-800×g for 15 minutes. A 1 mL aliquot of the plasma was added into 1 mL of Drabkin's reagent, and placed at room temperature for a minimum of 15 minutes. The absorbance was read on a spectrophotometer at 540 nm. The hemoglobin concentration was determined from the standard curve and then multiplied by a factor of 2 to obtain the total plasma free hemoglobin. The plasma free hemoglobin was less than 2 mg/mL (actual value 0.221 mg/mL). A 20 μL aliquot of blood was added to 5 mL of Drabkin's reagent in duplicate and allowed to stand at room temperature for a minimum of 15 minutes. The absorbance was read on a spectrophotometer at 540 nm then multiplied by 251 to account for the dilution.
Based on the plasma hemoglobin and the blood absorbance against Drabkin's reagent, the blood was diluted out to 10±1 mg/mL with PBS. To verify the blood dilution, a 300 μL aliquot of this blood was added to 4.5 mL of Drabkin's reagent in triplicate and allowed to stand at room temperature for a minimum of 15 minutes. The absorbance was read on a spectrophotometer at 540 nm then multiplied by 16 to account for the dilution.
Glass test tubes were labeled appropriately. Both samples were prepared the same way. The samples were allowed to thaw prior to testing. To each test tube, 7 mL of the test article and 1 mL of the diluted blood were added. The controls consisted of the appropriate amount of control material, 7 mL of PBS and 1 mL of blood. Three tubes were prepared for each test article and control. The tubes were incubated at 37±2° C. for 3 hours±5 minutes. Tubes were gently inverted twice at 30 minute intervals throughout the incubation period. A non-hemolytic negative control, a hemolytic positive control and a PBS blank were included.
After incubation, test articles were centrifuged at 700-800×g for 15 minutes and 1 mL of the supernatant fluid was combined with 1 mL of Drabkin's reagent and allowed to stand at room temperature for a minimum of 15 minutes. Following the centrifugation phase, the supernatant of both test articles visually appeared clear and were particulate free. The PBS blank and the negative control supernatant visually appeared clear and were particulate free. The supernatant of the positive control visually appeared red and were particulate free. The test articles and controls were read at 540 nm in a spectrophotometer.
The hemolytic index (percent hemolysis) was interpreted using the following equation:
[formula] Where: Hemoglobin Released (mg/mL)=(Optical Density×X Coefficient+Constant)×16 Hemoglobin Present (mg/ml)=Diluted Blood 10±1 mg/mL
The corrected hemolytic index was calculated by subtracting the hemolytic index of the PBS blank solution from the hemolytic index of the test article and controls. […]

Compound: CC(C)CNCCCNCCCNCc1cc(CNCCCNCCCNCC(C)C)cc(-c2ccccc2)c1 [CZ-86, N^1,N^1′-([1,1′-biphenyl]-3,5-diylbis(methylene))bis(N^3-(3-(isobutylamino)propyl)propane-1,3-diamine), hydrochloride salt]
- Average Hemolytic Index (% Hemolysis): 0.76 % Hemolysis
- Hemolytic Grade: non-hemolytic
- difference between the hemolytic indexes of test article and negative control: 0.00%
- Average Optical Density (540 nm): 0.003
- Optical Density (540 nm, three tubes, 37 ± 2° C., 3 hours): 0.003
- Corrected Hemolytic Index (% Hemolysis) (hemolytic index of the PBS blank subtracted): 0.00 % Hemolysis
- Hemolytic Index (three tubes): 0.764

Source: US10440955B2, “Methods comprising a biocidal polyamine” (Curza Global, LLC, priority 2013, dated 2019)
